Each structure is given as a SMILES string.

The test concerns the target GABAA receptor ([35S]-TBPS binding, rat brain cortical membranes). The test can be described thus: Steroid inhibition of [35S]-TBPS binding. As to conditions: 3 nM [35S]-TBPS, in the presence of 5 mM GABA, 90 min at room temp. As to the method:
Steroid Inhibition of TBPS Binding
[^35S]-t-Butylbicyclophosphorothionate (TBPS) binding assays using rat brain cortical membranes in the presence of 5 mM GABA has been described (Gee et al, J. Pharmacol. Exp. Ther. 1987, 241, 346-353; Hawkinson et al, Mol. Pharmacol. 1994, 46, 977-985; Lewin, A. H et al., Mol. Pharmacol. 1989, 35, 189-194).
Briefly, cortices are rapidly removed following decapitation of carbon dioxide-anesthetized Sprague-Dawley rats (200-250 g). The cortices are homogenized in 10 volumes of ice-cold 0.32 M sucrose using a glass/teflon homogenizer and centrifuged at 1500×g for 10 min at 4° C. The resultant supernatants are centrifuged at 10,000×g for 20 min at 4° C. to obtain the P2 pellets. The P2 pellets are resuspended in 200 mM NaCl/50 mM Na—K phosphate pH 7.4 buffer and centrifuged at 10,000×g for 10 min at 4° C. This washing procedure is repeated twice and the pellets are resuspended in 10 volumes of buffer. Aliquots ([…]) of the membrane suspensions are incubated with 3 nM [^35S]-TBPS and […] aliquots of test drug dissolved in dimethyl sulfoxide (DMSO) (final 0.5%) in the presence of 5 mM GABA. The incubation is brought to a final volume of 1.0 mL with buffer. Nonspecific binding is determined in the presence of […] and ranged from 15 to 25%. Following a 90 min incubation at room temp, the assays are terminated by filtration through glass fiber filters (Schleicher and Schuell No. 32) using a cell harvester (Brandel) and rinsed three times with ice-cold buffer. Filter bound radioactivity is measured by liquid scintillation spectrometry. Non-linear curve fitting of the overall data for each drug averaged for each concentration is done using Prism (GraphPad). […] The concentration of test compound producing 50% inhibition (IC50) of specific binding and the maximal extent of inhibition (Imax) are determined for the individual experiments with the same model used for the overall data and then the means±SEM.s of the individual experiments are calculated.
Various compounds are or can be screened to determine their potential as modulators of [^35S]-TBPS binding in vitro. These assays are or can be performed in accordance with the above.

Take `C[C@@]1(O)CC[C@@]2(C)[C@@H](CC[C@@H]3[C@@H]2CC[C@@]24C[C@@]32CC[C@@H]4C(=O)Cn2cc(C#N)cn2)C1` [Compound No. 23, 1-(2-((3R,5S,8R,9S,10S,13S,14S,17S)-3-hydroxy-3,10-dimethyltetradecahydro-1H-13,14-methanocyclopenta[a]phenanthren-17-yl)-2-oxoethyl)-1H-pyrazole-4-carbonitrile]: the half-inhibitory concentration (IC50) is under 100 nM.
The same measure for `C[C@@]1(O)CC[C@H]2[C@H](CC[C@@H]3[C@@H]2CC[C@@]2(C)[C@H]3C[C@H]3C[C@H]3[C@@H]2[C@](C)(O)Cn2cc(C#N)cn2)C1` [Compound No. 2, 1-((S)-2-hydroxy-2-((2R,4aS,4bR,6aS,7S,7aR,8aR,9aS,9bR,11aR)-2-hydroxy-2,6a-dimethyloctadecahydro-1H-cyclopropa[b]chrysen-7-yl)propyl)-1H-pyrazole-4-carbonitrile]: under 100 nM; for `CC(Cn1cc(C#N)cn1)[C@H]1[C@H]2C[C@H]2[C@H]2[C@@H]3CC[C@@H]4C[C@](C)(O)CC[C@@H]4[C@H]3CC[C@@]21C` (single isomer, unassigned) [Compound No. 10]: under 100 nM.
To `CC(Cn1cc(C#N)cn1)[C@H]1[C@H]2C[C@H]2[C@H]2[C@@H]3CC[C@@H]4C[C@](C)(O)CC[C@@H]4[C@H]3CC[C@@]21C` (single isomer, unassigned) [Compound No. 11] belongs under 100 nM; to `C[C@@]1(O)CC[C@H]2[C@H](CC[C@@H]3[C@@H]2CC[C@@]2(C)[C@H]3C[C@H]3C[C@H]3[C@@H]2[C@@](C)(O)Cn2cc(C#N)cn2)C1` [Compound No. 3], under 100 nM.
For the compound `CC(=O)[C@H]1CC[C@@]23C[C@@]12CC[C@H]1[C@H]3CC[C@H]2C[C@](C)(O)CC[C@@]21C` [Compound No. 22, 1-((3R,5S,8R,9S,10S,13S,14S,17S)-3-hydroxy-3,10-dimethyltetradecahydro-1H-13,14-methanocyclopenta[a]phenanthren-17-yl)ethanone], the IC50 was 100 to 1000 nM.
To `Cc1nnn(C[C@@H]2C[C@H]2[C@H]2CC[C@H]3[C@@H]4CC[C@@H]5C[C@](C)(O)CC[C@@H]5[C@H]4CC[C@]23C)n1` [Compound No. 28, (3R,5R,8R,9R,10S,13S,14S,17R)-3,13-dimethyl-17-((1S,2R)-2-((5-methyl-2H-tetrazol-2-yl)methyl)cyclopropyl)hexadecahydro-1H-cyclopenta[a]phenanthren-3-ol] belongs under 100 nM.
The same measure for `COC[C@@]1(O)CC[C@H]2[C@@H](CC[C@@H]3[C@@H]2CC[C@@]2(C)[C@H]3[C@@H]3C[C@@H]3[C@@H]2[C@H](C)Cn2nnc(C)n2)C1` [Compound No. 17, (2R,4aS,4bR,6aS,7R,7aS,8aR,8bR,8cR,10aS)-2-(methoxymethyl)-6a-methyl-7-((S)-1-(5-methyl-2H-tetrazol-2-yl)propan-2-yl)octadecahydrocyclopropa[4,5]cyclopenta[1,2-a]phenanthren-2-ol]: 100 to 1000 nM; for `C[C@@]1(O)CC[C@H]2[C@H](CC[C@@H]3[C@@H]2CC[C@@]2(C)[C@H]3[C@@H]3C[C@@H]3C[C@@H]2C(=O)Cn2cc(C#N)cn2)C1` [Compound No. 8, 1-(2-((1S,2aR,3aR,3bS,3cR,5aR,7R,9aS,9bR,11aS)-7-hydroxy-7,11a-dimethyloctadecahydro-1H-cyclopropa[c]chrysen-1-yl)-2-oxoethyl)-1H-pyrazole-4-carbonitrile]: under 100 nM.
To `CCC[C@@]1(O)CC[C@@]2(C)[C@@H](CC[C@H]3[C@@H]4[C@@H]5C[C@@H]5[C@H]([C@@](C)(O)Cn5cc(C#N)cn5)[C@@]4(C)CC[C@@H]32)C1` [Compound No. 14, 1-((R)-2-hydroxy-2-((2R,4aS,4bS,6aS,7S,7aS,8aR,8bS,8cR,10aS)-2-hydroxy-4a,6a-dimethyl-2-propyloctadecahydrocyclopropa[4,5]cyclopenta[1,2-a]phenanthren-7-yl)propyl)-1H-pyrazole-4-carbonitrile] belongs over 1000 nM.
Regarding `C[C@@]1(O)CC[C@H]2[C@H](CC[C@@H]3[C@@H]2CC[C@@]2(C)[C@H]3C[C@H]3C[C@H]3[C@@H]2C(=O)Cn2cc(C#N)cn2)C1` [Compound No. 1, 1-(2-((2R,4aS,4bR,6aS,7S,7aR,8aR,9aS,9bR,11aR)-2-hydroxy-2,6α-dimethyloctadecahydro-1H-cyclopropa[b]chrysen-7-yl)-2-oxoethyl)-1H-pyrazole-4-carbonitrile], the IC50 is under 100 nM.
To `Cc1nnnn1C[C@@H]1C[C@H]1[C@H]1CC[C@H]2[C@@H]3CC[C@@H]4C[C@](C)(O)CC[C@@H]4[C@H]3CC[C@]12C` [Compound No. 27, (3R,5R,8R,9R,10S,13S,14S,17R)-3,13-dimethyl-17-((1S,2R)-2-((5-methyl-1H-tetrazol-1-yl)methyl)cyclopropyl)hexadecahydro-1H-cyclopenta[a]phenanthren-3-ol] belongs 100 to 1000 nM.
The same measure for `C[C@@]1(O)CC[C@H]2[C@H](CC[C@@H]3[C@@H]2CC[C@@]2(C)[C@H]3[C@@H]3C[C@@H]3[C@@H]2[C@](C)(O)Cn2cc(C#N)cn2)C1` (single isomer, unassigned) [Compound No. 12]: under 100 nM.
The same measure for `C[C@@H](Cn1cc(C#N)cn1)[C@H]1[C@@H]2C[C@@H]2C[C@H]2[C@@H]3CC[C@@H]4C[C@](C)(O)CC[C@@H]4[C@H]3CC[C@]12C` [Compound No. 4, 1-((R)-2-((2R,4aS,4bR,6aS,7R,7aR,8aR,9aS,9bR,11aR)-2-hydroxy-2,6a-dimethyloctadecahydro-1H-cyclopropa[b]chrysen-7-yl)propyl)-1H-pyrazole-4-carbonitrile]: under 100 nM.
Regarding `C[C@@]1(O)CC[C@H]2[C@H](CC[C@@H]3[C@@H]2CC[C@@]2(C)[C@H]3C[C@@H]3C[C@@H]3[C@@H]2C(=O)Cn2cc(C#N)cn2)C1` [Compound No. 6, 1-(2-((2R,4aS,4bR,6aS,7S,7aS,8aS,9aS,9bR,11aR)-2-hydroxy-2,6a-dimethyloctadecahydro-1H-cyclopropa[b]chrysen-7-yl)-2-oxoethyl)-1H-pyrazole-4-carbonitrile], the IC50 was under 100 nM.
Consider `COC[C@@]1(O)CC[C@H]2[C@@H](CC[C@@H]3[C@@H]2CC[C@@]2(C)[C@H]3[C@@H]3C[C@@H]3[C@@H]2[C@@H](C)Cn2nnc(C)n2)C1` [Compound No. 18, (2R,4aS,4bR,6aS,7R,7aS,8aR,8bR,8cR,10aS)-2-(methoxymethyl)-6a-methyl-7-((R)-1-(5-methyl-2H-tetrazol-2-yl)propan-2-yl)octadecahydrocyclopropa[4,5]cyclopenta[1,2-a]phenanthren-2-ol], for which the IC50 lay in the range of 100 to 1000 nM.
The same measure for `C[C@H](Cn1cc(C#N)cn1)[C@H]1[C@@H]2C[C@@H]2C[C@H]2[C@@H]3CC[C@@H]4C[C@](C)(O)CC[C@@H]4[C@H]3CC[C@]12C` [Compound No. 5, 1-((S)-2-((2R,4aS,4bR,6aS,7R,7aR,8aR,9aS,9bR,11aR)-2-hydroxy-2,6a-dimethyloctadecahydro-1H-cyclopropa[b]chrysen-7-yl)propyl)-1H-pyrazole-4-carbonitrile]: under 100 nM; for `CC(=O)[C@H]1[C@H]2C[C@H]2[C@H]2[C@@H]3CC[C@@H]4C[C@](C)(O)CC[C@@H]4[C@H]3CC[C@@]21C` [Compound No. 9, 1-((2R,4aS,4bR,6aS,7S,7aS,8aR,8bR,8cR,10aR)-2-hydroxy-2,6a-dimethyloctadecahydrocyclopropa[4,5]cyclopenta[1,2-a]phenanthren-7-yl)ethanone]: under 100 nM.
The same measure for `Cc1nnnn1C[C@H]1C[C@@H]1[C@H]1CC[C@H]2[C@@H]3CC[C@@H]4C[C@](C)(O)CC[C@@H]4[C@H]3CC[C@]12C` [Compound No. 26, (3R,5R,8R,9R,10S,13S,14S,17R)-3,13-dimethyl-17-((1R,2S)-2-((5-methyl-1H-tetrazol-1-yl)methyl)cyclopropyl)hexadecahydro-1H-cyclopenta[a]phenanthren-3-ol]: under 100 nM.
To `CCC[C@@]1(O)CC[C@H]2C(CC[C@@H]3[C@@H]2CC[C@@]2(C)[C@H]3[C@@H]3C[C@@H]3[C@@H]2C(=O)Nc2ccc(C#N)cn2)C1` (stereo in doubt) [Compound No. 15, (2R,4aS,4bR,6aS,7S,7aS,8aR,8bR,8cR,10aR)-N-(5-cyanopyridin-2-yl)-2-hydroxy-6a-methyl-2-propyloctadecahydrocyclopropa[4,5]cyclopenta[1,2-a]phenanthrene-7-carboxamide] belongs under 100 nM.

The term IC50 denotes the midpoint of a concentration-inhibition curve.

Source of the values: US20240101592A1, “COMPOSITIONS AND METHODS FOR TREATING CNS DISORDERS” (Sage Therapeutics, Inc., priority 2020, published 2024).
